test system: HT-29 cells; test: HT-29 cell necrosis/necroptosis inhibition (TNF-α + SMAC mimetic + zVAD-FMK; CellTiter-Glo cell viability); format: cell-based; details: Homo sapiens, HT-29, 20 h, read-out: EC50 (Cell activity; Necrosis/Necroptosis Inhibitory Activity, Compounds 1-142)
In short: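 Necroptosis was driven by TNF-α 10 ng/ml plus SMAC mimetic 6 μM and zVAD-FMK 10 μM in serum-free medium, with compounds as a 10-point threefold titration. After 20 h at 37 °C, ATP-based luminescence was read; EC50 values are geometric means of duplicate curves.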

| Structure (SMILES) | EC50 |
| --- | --- |
| CC(=O)Nc1c(C)nn(-c2nc(N3CCN(C(=O)N4N=CC[C@H]4c4cc(F)cc(C#N)c4)CC3)ncc2F)c1C [Compound 142, (S)—N-(1-(2-(4-(5-(3-cyano-5-fluorophenyl)-4,5-dihydro-1H-pyrazole-1-carbonyl)piperazin-1-yl)-5-fluoropyrimidin-4-yl)-3,5-dimethyl-1H-pyrazol-4-yl)acetamide] | 0.1 to 100 nM |
| Cc1nn(C[C@@H]2CO2)c(C)c1-c1nc(N2CCN(C(=O)N3N=CC[C@H]3c3cc(F)cc(C#N)c3)CC2)ncc1F [Compound 133, 3-((S)-1-(4-(4-(3,5-dimethyl-1-(((R)-oxiran-2-yl)methyl)-1H-pyrazol-4-yl)-5-fluoropyrimidin-2-yl)piperazine-1-carbonyl)-4,5-dihydro-1H-pyrazol-5-yl) fluorobenzonitrile] | 0.1 to 100 nM |

same assay, conditions: Homo sapiens; HT-29 cells, TNF-α 10 ng/ml + SMAC mimetic 6 μM + zVAD-FMK 10 μM, 20 hours; geometric mean, 10 points in duplicate; read-out: EC50 (Cell activity; Necrosis/Necroptosis Inhibitory Activity, Compounds 1-142)

| Structure (SMILES) | EC50 |
| --- | --- |
| Cc1cc(-c2nc(N3CCN(C(=O)N4N=CC[C@H]4c4cc(F)cc(F)c4)CC3)ncc2F)n(C)n1 [Compound 83, (S)-(5-(3,5-difluorophenyl)-4,5-dihydro-1H-pyrazol-1-yl)(4-(4-(1,3-dimethyl-1H-pyrazol-5-yl)-5-fluoropyrimidin-2-yl)piperazin-1-yl)methanone] | 0.1 to 100 nM |
| Cc1n[nH]cc1-c1nc(N2CCN(C(=O)N3N=CC[C@H]3c3cc(F)cc(F)c3)CC2)ncc1F [Compound 13, (S)-(5-(3,5-difluorophenyl)-4,5-dihydro-1H-pyrazol-1-yl)(4-(5-fluoro-4-(3-methyl-1H-pyrazol-4-yl)pyrimidin-2-yl)piperazin-1-yl)methanone] | 0.1 to 100 nM |
| N#Cc1cc(F)cc([C@@H]2CC=NN2C(=O)N2CCN(c3ncc(F)c(-n4ccc(C#N)n4)n3)CC2)c1 [Compound 128, (S)-1-(2-(4-(5-(3-cyano-5-fluorophenyl)-4,5-dihydro-1H-pyrazole-1-carbonyl)piperazin-1-yl)-5-fluoropyrimidin-4-yl)-1H-pyrazole-3-carbonitrile] | 0.1 to 100 nM |
| N#Cc1cc(F)cc([C@@H]2CC=NN2C(=O)N2CCN(c3ncc(F)c(-c4cc[nH]n4)n3)CC2)c1 [Compound 22, (S)-3-fluoro-5-(1-(4-(5-fluoro-4-(1H-pyrazol-3-yl)pyrimidin-2-yl)piperazine-1-carbonyl)-4,5-dihydro-1H-pyrazol-5-yl)benzonitrile] | 0.1 to 100 nM |
| N#Cc1cccc([C@@H]2CC=NN2C(=O)N2CCN(c3nccc(-c4cc[nH]n4)n3)CC2)c1 [Compound 37, (S)-3-(1-(4-(4-(1H-pyrazol-3-yl)pyrimidin-2-yl)piperazine-1-carbonyl)-4,5-dihydro-1H-pyrazol-5-yl)benzonitrile] | 0.1 to 100 nM |
| N#Cc1cccc([C@@H]2CC=NN2C(=O)N2CCN(c3nccc(-n4cc(C(N)=O)cn4)n3)CC2)c1 [Compound 106, (S)-1-(2-(4-(5-(3-cyanophenyl)-4,5-dihydro-1H-pyrazole-1-carbonyl)piperazin-1-yl)pyrimidin-4-yl)-1H-pyrazole-4-carboxamide] | 0.1 to 100 nM |
| Cc1nnn(C)c1-c1nc(N2CCN(C(=O)N3N=CC[C@H]3c3cc(F)cc(C#N)c3)CC2)ncc1F [Compound 70, (S)-3-(1-(4-(4-(1,4-dimethyl-1H-1,2,3-triazol-5-yl)-5-fluoropyrimidin-2-yl)piperazine-1-carbonyl)-4,5-dihydro-1H-pyrazol-5-yl)-5-fluorobenzonitrile] | 0.1 to 100 nM |
| Cc1nn(CC2CCCCO2)c(C)c1-c1nc(N2CCN(C(=O)N3N=CC[C@H]3c3cc(F)cc(C#N)c3)CC2)ncc1F (some centres unmarked) [Compound 137, 3-((58)-1-(4-(4-(3,5-dimethyl-1-((tetrahydro-2H-pyran-2-yl)methyl)-1H-pyrazol-4-yl)-5-fluoropyrimidin-2-yl)piperazine-1-carbonyl)-4,5-dihydro-1H-pyrazol-5-yl)-5-fluorobenzonitrile] | 0.1 to 100 nM |
| Cc1nc(C)c(-c2nc(N3CCN(C(=O)N4N=CC[C@H]4c4cc(F)cc(F)c4)CC3)ncc2F)s1 [Compound 55, (S)-(5-(3,5-difluorophenyl)-4,5-dihydro-1H-pyrazol-1-yl)(4-(4-(2,4-dimethylthiazol-5-yl)-5-fluoropyrimidin-2-yl)piperazin-1-yl)methanone] | 0.1 to 100 nM |
| O=C(N1CCN(c2nccc(-c3cc[nH]n3)n2)CC1)N1N=CC[C@H]1c1ccccc1 [Compound 39, (S)-(4-(4-(1H-pyrazol-3-yl)pyrimidin-2-yl)piperazin-1-yl)(5-phenyl-4,5-dihydro-1H-pyrazol-1-yl)methanone] | 0.1 to 100 nM |
| Cc1nnn(C)c1-c1nc(N2CCN(C(=O)N3N=CC[C@H]3c3cc(F)cc(F)c3)CC2)ncc1F [Compound 71, (S)-(5-(3,5-difluorophenyl)-4,5-dihydro-1H-pyrazol-1-yl)(4-(4-(1,4-dimethyl-1H-1,2,3-triazol-5-yl)-5-fluoropyrimidin-2-yl)piperazin-1-yl)methanone] | 0.1 to 100 nM |

same assay, conditions: Homo sapiens; HT-29 cells, TNF-α 10 ng/ml + SMAC mimetic 6 μM + zVAD-FMK 10 μM, 20 hours; geometric mean, 10 points in duplicate; read-out: EC50 (Cell activity; Necrosis/Necroptosis Inhibitory Activity, Compounds 143-323)

| Structure (SMILES) | EC50 |
| --- | --- |
| Cc1nc(C)n(-c2nc(N3CCN(C(=O)N4N=CCC4c4ncccc4Cl)CC3)ncc2Cl)n1 (centres unmarked) [Compound 220, (4-(5-chloro-4-(3,5-dimethyl-1H-1,2,4-triazol-1-yl)pyrimidin-2-yl)piperazin-1-yl)(5-(3-chloropyridin-2-yl)-4,5-dihydro-1H-pyrazol-1-yl)methanone] | 0.1 to 100 nM |
| Cc1nc(C)n(-c2ncc(F)c(N3CCN(C(=O)N4N=CCC4c4ncccc4Cl)CC3)n2)n1 (centres unmarked) [Compound 263, (5-(3-chloropyridin-2-yl)-4,5-dihydro-1H-pyrazol-1-yl)(4-(2-(3,5-dimethyl-1H-1,2,4-triazol-1-yl)-5-fluoropyrimidin-4-yl)piperazin-1-yl)methanone] | 100 to 1000 nM |
| Cc1nn(-c2nc(N3CCN(C(=O)N4N=CC[C@H]4c4cc(F)cc(C#N)c4)CC3)ncc2F)c(C)c1C(N)=O [Compound 277, (S)-1-(2-(4-(5-(3-cyano-5-fluorophenyl)-4,5-dihydro-1H-pyrazole-1-carbonyl)piperazin-1-yl)-5-fluoropyrimidin-4-yl)-3,5-dimethyl-1H-pyrazole carboxamide] | 0.1 to 100 nM |
| Cc1nc(C)n(-c2nc(N3CCN(C(=O)N4N=CCC4c4cnc(C)s4)CC3)ncc2F)n1 (centres unmarked) [Compound 291, (4-(4-(3,5-dimethyl-1H-1,2,4-triazol-1-yl)-5-fluoropyrimidin-2-yl)piperazin-1-yl)(5-(2-methylthiazol-5-yl)-4,5-dihydro-1H-pyrazol-1-yl)methanone] | 0.1 to 100 nM |
| Cc1nn(S(C)(=O)=O)c(C)c1-c1nc(N2CCN(C(=O)N3N=CC[C@H]3c3cc(F)cc(C#N)c3)CC2)ncc1F [Compound 208, (S)-3-(1-(4-(4-(3,5-dimethyl-1-(methylsulfonyl)-1H-pyrazol-4-yl)-5-fluoropyrimidin-2-yl)piperazine-1-carbonyl)-4,5-dihydro-1H-pyrazol-5-yl)-5-fluorobenzonitrile] | 0.1 to 100 nM |
| Cc1nc(C2CC=NN2C(=O)N2CCN(c3nc(-c4c(C)cnn4C)ccc3F)CC2)cs1 (centres unmarked) [Compound 298, (4-(6-(1,4-dimethyl-1H-pyrazol-5-yl)-3-fluoropyridin-2-yl)piperazin-1-yl)(5-(2-methylthiazol-4-yl)-4,5-dihydro-1H-pyrazol-1-yl)methanone] | 0.1 to 100 nM |
| Cc1nn(-c2cc(N3CCN(C(=O)N4N=CC[C@H]4c4cc(F)cc(C#N)c4)CC3)ncn2)c(C)c1Cl [Compound 289, (S)-3-(1-(4-(6-(4-chloro-3,5-dimethyl-1H-pyrazol-1-yl)pyrimidin-4-yl)piperazine-1-carbonyl)-4,5-dihydro-1H-pyrazol-5-yl)-5-fluorobenzonitrile] | 0.1 to 100 nM |
| Cn1nc(CO)nc1-c1nc(N2CCN(C(=O)N3N=CCC3c3cc(F)cc(F)c3)CC2)ncc1F (centres unmarked) [Compound 227, (5-(3,5-difluorophenyl)-4,5-dihydro-1H-pyrazol-1-yl)(4-(5-fluoro-4-(3-(hydroxymethyl)-1-methyl-1H-1,2,4-triazol-5-yl)pyrimidin-2-yl)piperazin-1-yl)methanone] | 0.1 to 100 nM |
| N#Cc1cc(F)cc([C@@H]2CC=NN2C(=O)N2CCN(c3ncc(F)c(-n4cnc(C(F)(F)F)n4)n3)CC2)c1 [Compound 306, (S)-3-fluoro-5-(1-(4-(5-fluoro-4-(3-(trifluoromethyl)-1H-1,2,4-triazol-1-yl)pyrimidin-2-yl)piperazine-1-carbonyl)-4,5-dihydro-1H-pyrazol-5-yl)benzonitrile] | 0.1 to 100 nM |
| Cc1nnc(-c2nc(N3CCN(C(=O)N4N=CC[C@H]4c4cc(F)cc(F)c4)CC3)ncc2F)n1C [Compound 178, (S)-(5-(3,5-difluorophenyl)-4,5-dihydro-1H-pyrazol-1-yl)(4-(4-(4,5-dimethyl-4H-1,2,4-triazol-3-yl)-5-fluoropyrimidin-2-yl)piperazin-1-yl)methanone] | 0.1 to 100 nM |
| Cc1cnc(C2CC=NN2C(=O)N2CCN(c3ncc(F)c(-c4nnc(C)s4)n3)CC2)s1 (centres unmarked) [Compound 316] | 0.1 to 100 nM |
| Cc1nn(-c2ccnc(N3CCN(C(=O)N4N=CC[C@H]4c4cc(F)cc(C#N)c4)CC3)n2)c(C)c1C#N [Compound 274, (S)-1-(2-(4-(5-(3-cyano-5-fluorophenyl)-4,5-dihydro-1H-pyrazole-1-carbonyl)piperazin-1-yl)pyrimidin-4-yl)-3,5-dimethyl-1H-pyrazole-4-carbonitrile] | 0.1 to 100 nM |
| CCS(=O)(=O)Nc1c(C)nn(-c2nc(N3CCN(C(=O)N4N=CC[C@H]4c4cc(F)cc(C#N)c4)CC3)ncc2F)c1C [Compound 194, (S)—N-(1-(2-(4-(5-(3-cyano-5-fluorophenyl)-4,5-dihydro-1H-pyrazole-1-carbonyl)piperazin-1-yl)-5-fluoropyrimidin-4-yl)-3,5-dimethyl-1H-pyrazol-4-yl)ethanesulfonamide] | 0.1 to 100 nM |
